Results as given in ChEMBL document CHEMBL5360522, “Design, Synthesis, and Biological Evaluation of New 1H-Imidazole-2-Carboxylic Acid Derivatives as Metallo-β-Lactamase Inhibitors” (Bioorg Med Chem, 2022).

Experiments:
[1] = Inhibition of N-terminal His-6 tagged VIM-2 (27 to 266 residues) (unknown origin) expressed in Escherichia coli Transetta (DE3) using FC5 as fluorescence substrate preincubated for 10 mins followed by substrate addition by microplate reader analysis; set-up: species or system Bacteria
[2] = Inhibition of Metallo-beta-lactamase VIM-1 (unknown origin) using FC5 as fluorescence substrate preincubated for 10 mins followed by substrate addition by microplate reader analysis
[3] = Inhibition of Metallo-beta-lactamase VIM-5 (unknown origin) using FC5 as fluorescence substrate preincubated for 10 mins followed by substrate addition by microplate reader analysis
[4] = target: Metallo-beta-lactamase type 2 (Bacteria, UniProt C7C422); experiment: Inhibition of NDM-1 (1 to 270 residues) (unknown origin) expressed in Escherichia coli Transetta (DE3) using FC5 as fluorescence substrate preincubated for 10 mins followed by substrate addition by microplate reader analysis
Sequence of Metallo-beta-lactamase type 2 (C7C422 whole entry, the tested form may be a part): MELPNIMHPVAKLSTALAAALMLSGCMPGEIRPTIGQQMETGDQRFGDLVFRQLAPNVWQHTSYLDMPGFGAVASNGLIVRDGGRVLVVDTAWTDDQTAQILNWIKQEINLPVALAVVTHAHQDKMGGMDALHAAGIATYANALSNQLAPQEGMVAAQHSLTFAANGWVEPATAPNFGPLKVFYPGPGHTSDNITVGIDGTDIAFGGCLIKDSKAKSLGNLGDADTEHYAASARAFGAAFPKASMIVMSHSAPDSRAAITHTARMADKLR

[5] = Inhibition of Metallo-beta-lactamase IMP-1 (unknown origin) using FC5 as fluorescence substrate preincubated for 10 mins followed by substrate addition by microplate reader analysis
Escherichia coli [6] = experiment: Antibacterial activity against Escherichia coli C1541 expressing VIM-2 assessed as meropenem MIC at 10 ug/ml incubated for 16 to 18 hrs in presence of meropenem by two-fold serial dilution method; assay type: functional; conditions: dose 10 µg/ml, time 16-18 hrs
Escherichia coli [7] = experiment: Antibacterial activity against Escherichia coli C1542 expressing VIM-2 assessed as meropenem MIC at 10 ug/ml incubated for 16 to 18 hrs in presence of meropenem by two-fold serial dilution method; assay type: functional; conditions: dose 10 µg/ml, time 16-18 hrs
Escherichia coli [8] = experiment: Antibacterial activity against Escherichia coli C1541 expressing IMP-1 assessed as meropenem MIC at 10 ug/ml incubated for 16 to 18 hrs in presence of meropenem by two-fold serial dilution method; assay type: functional; conditions: dose 10 µg/ml, time 16-18 hrs

Compound | IC50 [1] [µM] | IC50 [2] [µM] | IC50 [3] [µM] | IC50 [4] [µM] | IC50 [5] [µM] | MIC (Escherichia coli [6]) [µg/mL] | MIC (Escherichia coli [7]) [µg/mL] | MIC (Escherichia coli [8]) [µg/mL]
O=C(O)c1ncsc1CCc1ccccc1 | 0.22 | 0.42 | 0.43 | 82.4 | 2.92 |  |  | 
O=C(O)c1nccn1CCc1cccc(Cl)c1 | 0.09 | 0.96 | 108 | > 100 | > 100 |  |  | 
O=C(O)c1ncsc1CCc1ccc(C(F)(F)F)cc1 | 0.21 | 14.5 | 1.55 | > 100 | 87.8 |  |  | 
O=C(O)c1nccn1CCc1ccc(-c2cccs2)cc1 | 0.018 | 3.98 | 0.018 | 126 | 64 | ≤ 0.25 | ≤ 0.25 | 8
COc1ccc(CCn2ccnc2C(=O)O)cc1OC | 0.31 | 76.3 | 15.1 | > 100 | 326 |  |  | 
COc1ccc(CCn2ccnc2C(=O)O)cc1 | 0.35 | 33.7 | 1.64 | > 100 | 4.48 |  |  | 
O=C(O)c1nncn1Cc1ccccc1 | > 100 |  |  | > 100 |  |  |  | 
Cc1ccc(CCn2ccnc2C(=O)O)cc1 | 0.48 | 15.7 | 6.28 | > 100 | > 100 |  |  | 
O=C(O)c1nccn1CCc1ccc(Br)cc1 | 0.06 | 3.5 | 0.1 | > 100 | > 100 |  |  | 
Nc1ccc(CCn2ccnc2C(=O)O)cc1 | 0.33 | 3.73 | 0.45 | > 100 | 4.9 |  |  | 
O=C(O)c1nccn1CCNS(=O)(=O)c1ccccc1 | 5.95 | > 100 | 62.7 | > 100 | > 100 |  |  | 
Cc1ncsc1CCn1ccnc1C(=O)O | 0.2 | 31.6 | 1.99 | > 100 | > 100 |  |  | 
O=C(O)c1nccn1C(C(=O)O)c1ccccc1 (centres undefined) | 7.48 | > 300 | 9.24 | > 300 | 1.59 | 16 | 16 | 8
O=C(O)c1ncsc1CCc1cccc(C(F)(F)F)c1 | 0.56 | 2.08 | 2.69 | > 100 | 112 |  |  | 
O=C(O)c1nccn1CCc1cccs1 | 0.12 | 1.07 | 0.64 | > 100 | 7.97 |  |  | 
O=C(O)c1nccn1CCc1ccccn1 | 0.2 | 3.83 | 0.71 | 18.9 | > 100 |  |  | 
Cc1c(C(=O)O)ncn1Cc1ccccc1 | > 100 | > 100 | > 100 | > 100 | > 100 |  |  | 
O=C(O)c1nccn1CCOc1ccccc1 | 5.49 | 14.4 | 0.52 | > 100 | > 100 |  |  | 
O=C(O)c1ncsc1Cc1ccccc1 | 2.06 | 6.31 | 4.37 | 43.7 | 7.8 |  |  | 
O=C(O)c1nccn1CCc1ccc(-c2ccncc2)cc1 | 0.11 | 2.17 | 0.17 | 54.6 | 10.2 |  |  | 
O=C(O)c1nccn1CCc1cccc2ccccc12 | 0.07 | 4.13 | 1.07 | 74.8 | 50.9 | ≤ 0.25 | ≤ 0.25 | 8
O=C(O)c1ncsc1CCc1ccccc1F | 0.035 | 1.82 | 1.17 | > 100 | 121 |  |  | 
O=C(O)c1nccn1CCc1ccc([N+](=O)[O-])cc1 | 0.04 | 4.84 | 0.15 | > 100 | > 100 | ≤ 0.25 | ≤ 0.25 | 8
O=C(O)c1ncsc1CCc1cccc(Br)c1 | 0.024 | 1.64 | 1.45 | > 100 | > 100 |  |  | 
O=C(O)c1nccn1CCc1ccc2c(c1)CCO2 | 0.48 | 190 | 96.2 | > 100 | > 100 |  |  | 

Compound | IC50 [1] [µM] | IC50 [2] [µM] | IC50 [3] [µM] | IC50 [4] [µM] | IC50 [5] [µM] | MIC (Escherichia coli [6]) [µg/mL] | MIC (Escherichia coli [7]) [µg/mL] | MIC (Escherichia coli [8]) [µg/mL]
O=C(O)c1nccn1CCc1ccc(F)cc1 | 0.14 | 3.11 | 1.93 | > 100 | > 100 |  |  | 
CCC(c1ccccc1)n1ccnc1C(=O)O (centres undefined) | 2.73 | 30.8 | 2.59 | > 300 | > 300 |  |  | 
O=C(O)c1nccn1CCc1ccc2ccccc2c1 | 0.023 | 7.06 | 0.14 | > 100 | 46.8 | 0.5 | ≤ 0.25 | 8
O=C(O)c1ncn(Cc2ccccc2)n1 | > 100 |  |  | > 100 |  |  |  | 
O=C(O)c1nccn1CCCc1ccccc1 | 0.63 | 0.63 | 0.83 | > 100 | 10.8 |  |  | 
COc1cccc(CCn2ccnc2C(=O)O)c1 | 0.38 | 9.39 | 10.7 | > 100 | 70.2 |  |  | 
O=C(O)c1nccn1Cc1ccccc1 | 0.48 | 4.14 | 1.55 | 63.5 | 32.1 | 16 | 16 | 8
O=C(O)c1nccn1CCc1ccc(-c2ccccc2)cc1 | 0.06 | 2.37 | 0.18 | 25.4 | 21.4 | 0.5 | ≤ 0.25 | 8
O=C(Cn1ccnc1C(=O)O)c1ccccc1 | 0.63 | 5.02 | 1.85 | > 300 | > 100 |  |  | 
O=C(O)c1nc2ccccc2n1Cc1ccccc1 | > 300 | > 100 |  | > 100 | > 100 |  |  | 
O=C(O)c1nccn1CCc1ccc(Cl)cc1 | 0.1 | 8.37 | 0.44 | > 100 | > 100 |  |  | 
O=C(O)c1nccn1CCS(=O)(=O)c1ccccc1 | 2.87 | 112 | 4.42 | > 100 | > 100 |  |  | 
O=C(O)c1nccn1CCc1ccccc1 | 0.11 | 2.32 | 1.59 | 301 | 483 |  |  | 
O=C(O)c1ncsc1CCc1ccc(F)cc1 | 0.047 | 4.09 | 0.41 | > 100 | 56.8 |  |  | 
O=C(O)c1nccn1CCc1ccc(-c2cccc3ccccc23)cc1 | 1.46 | > 100 | 0.089 | ~200 | ~67 |  |  | 
O=C(O)c1ncoc1Cc1ccccc1 | 41.7 | > 100 | 11.8 | > 100 | > 100 |  |  | 
O=C(O)c1ncnn1Cc1ccccc1 | > 100 |  |  | > 100 |  |  |  | 
CC(c1ccccc1)n1ccnc1C(=O)O (centres undefined) | 0.76 | 8.18 | 3.81 | > 200 | 4.12 |  |  | 
O=C(O)c1nccn1Cc1ccncc1 | 0.56 | 29.5 | 5.78 | > 300 | > 300 | ≤ 0.25 | ≤ 0.25 | 8
O=C(O)c1ncsc1CCc1ccc(Br)cc1 | 0.1 | 8.37 | 0.44 | > 100 | > 100 |  |  | 
CC(Cn1ccnc1C(=O)O)c1ccccc1 (centres undefined) | 0.19 | 3.29 | 1.08 | 203 | 261 |  |  | 
COc1cccc(CCc2scnc2C(=O)O)c1 | 0.028 | 4.77 | 3.23 | 29.9 | 61.6 |  |  | 
O=C(O)c1ncsc1CCc1ccc(C(c2ccccc2)(c2ccccc2)c2ccccc2)cc1 | 0.23 | 9.56 | 0.65 | > 100 | 46.8 |  |  | 
O=C(O)c1nccn1CCc1cccc(F)c1 | 0.11 | 3.67 | 0.66 | > 100 | 441 |  |  | 
O=C(O)c1nccn1CCc1ccc(-c2ccc3ccccc3c2)cc1 | 4.97 | 96.7 | 0.22 | > 100 | 202 |  |  | 
